{
  "source": "patent US5695970A",
  "about": "“Glucan lyase producing 1,5-anhydrofructose” (priority 1992, dated 1997)",
  "key": {"α-1,4-glucan lyase [1]": {"tested_on": "α-1,4-glucan lyase", "experiment": "Substrate specificity of α-1,4-glucan lyase (release of 1,5-anhydrofructose, DNS method, 15 min)", "format": "biochemical, Gracilariopsis lemaneiformis", "protocol": "When amylopectin was used as a substrate, the activity reached maximum 8 mg ml^-1 and then decreased slightly at 20 mg ml^-1. The same results were obtained with soluble starch and maltoheptaose. When maltotriose and maltose were used as substrates, the activity reached maximum at 2 mg ml^-1 and 6 mg ml^-1, respectively. Substrate inhibition became evident at higher concentrations, especially in the case of maltotriose. […] Generally, the inhibition degree decreased with the increase in DP number (Degree of Polymerization). When the activity measured at 10 mg ml^-1 was compared at 2 mg ml^-1 and 4 mg ml^-1, substrate inhibition could be clearly seen among the maltosaccharides of DP 3-5. In maltohexaose, the substrate inhibition was very low and was none in maltoheptaose. Among the maltosaccharides, maltotetraose and maltopentaose were the poorest substrates.\nWith PNPG1 (p-nitrophenyl-α-D-glucoside), the artificial substrate of α-glucosidase, reaction rate was the lowest.\nSubstrate Specificity of α-1,4-Glucan lyase.\nThe concentration of various substrates in the reaction mixture\nwas 10 mg ml^-1 except PNPG1, PNPG2, PNPG7, which was 2 mM.\nThe incubation time was 15 min. The degrading rate of maltoheptaose\nwas 84 μmol min^-1. mg^-1 protein.\nThe reaction mixture for the assay of α-1,4-glucan lyase was composed of 240 μl 62.5 mM Mops-NaOH containing 6 mg soluble starch (pH 6.2), the enzyme preparation and distilled water to a final volume of 300 μl. The reaction was carried out at 30° C. for 10-30 min. Liberated 1,5-anhydrofructose was determined by monitoring the absorbance at 546 nm after the addition of 3,5-dinitrosalicylic acid reagent. Soluble starch in the reaction mixture may be replaced by other substrates and the final substrate concentration may be varied as indicated in the text. The reaction time and enzyme concentration used in enzyme activity assay have been chosen to ensure the linearity of the reaction rate. One unit of α-1,4-glucan lyase activity is defined as the amount of enzyme which liberates 1μmol of 1,5-anhydrofructose min^-1 under the conditions described above."}, "α-1,4-glucan lyase [2]": {"tested_on": "α-1,4-glucan lyase", "experiment": "Elution of α-1,4-glucan lyase from the starch column by glucans", "format": "binding, Gracilariopsis lemaneiformis", "conditions": "glucan 8 mg ml^-1; column 1 ml, 5 ml eluate; recovery with amylopectin = 100%", "protocol": "In these experiments, as much as 5 times of the column volume was collected. At high pH, for example, 50 mM bicine-NaOH (pH 8.2), the binding of the enzyme onto the starch column was loose and it was eluted by subsequent washing with the same buffer. Neither ConA-Sepharose nor cycloheptaamylose-Sepharose 6B was effective for the purification of the enzyme because of low recovery.\nThe efficiency of various glucans (8 mg ml^-1) on the elution of\nα-1,4-glucan lyase from the starch column. The column volume\nwas 1 ml and 5 ml eluate was pooled. The recovery of\nα-1,4-glucan lyase eluted by amylopectin was used as 100%.\nGracilariopsis lemaneiformis (originally collected from China), 30 g, was sampled directly from the culture cylinder and was rinsed briefly with deionized water and blotted dry with paper tissue. The following operations were carried out at 0°-4° C. The thalli were cut to pieces with scissors and pulverized under liquid nitrogen. To 1 g alga powder was added 3 volumes of buffer A (50 mM citrate-NaOH, pH 6.6), filtered through two-layer cloth and centrifuged at 36,600×g for 10 min. The supernatant (cell-free extract) was loaded onto a starch column (4.1×1.5 cm) pre-equilibrated with buffer A. After loading, the column was extensively washed with 4 volumes of buffer A, volumes of buffer A containing 1M NaCl, 1 volume of buffer A, 1 volume of buffer B (50 mM imidazole-HCl, pH 6.6) in a flow speed of 24 ml h^-1. α-1,4-Glucan lyase was eluted with buffer B containing 10 mg ml^-1 amylopectin in a fraction size of 3.5 ml. To separate α-1,4-glucan lyase from the amylopectin, the active fractions of the eluate were pooled and applied onto a Q-Sepharose column (2.6×5 cm). The column was pre-equilibrated and later washed with buffer B. α-1,4-Glucan lyase was eluted with buffer B containing 0.7M NaCl. Active fractions were pooled and concentrated on a Centriprep CP30 (Amicon, USA) with a molecule weight cutoff of 30,000 and applied to a Sephacryl S-200 column (2.6×80 cm) pre-equilibrated and eluted with buffer A containing 0.2M NaCl. The flow speed was 60 ml h^-1 with a fraction size of 3.5 ml per tube. Active fractions were collected and concentrated again by using centriprep CP30."}, "α-1,4-glucan lyase [3]": {"tested_on": "α-1,4-glucan lyase", "experiment": "Reaction mode: complete degradation of substrates by the lyase and final products", "format": "biochemical, Gracilariopsis lemaneiformis", "conditions": "2% maltoheptaose; enzyme 6 μg protein per ml; 30° C.", "protocol": "In an enzyme concentration of 6 μg protein per ml, at 30° C., the time needed for a complete degradation of 1% maltose solution was 1 h, for 2% maltose solution, 3 h, for 5% maltose solution, 10-24 h, for 2% maltoheptaose, 10-24 h. This is in sharp contrast to many polysaccharides' depolymerization enzymes, whose reaction stops with the accumulation of products or with the decrease in substrate size.\nWhen maltoheptaose was used as a substrate, the final products are 1,5-anhydrofructose and glucose and their ratio is 6:1. The intermediate products are a mixture of maltosaccharides with a DP number between 2-6 during the process of the reaction. With the increase of reaction time, the DP number of the maltosaccharides decreased and finally all the maltosaccharides disappeared. When maltose was used as a substrate, the ratio of 1,5-anhydrofructose to glucose was 1:1. With the increase of DP number, the yield of glucose decreased, while the yield of 1,5-anhydrofructose increased. When a linear chain of a α-1,4-glucan is long enough, the yield of 1,5-anhydrofructose can be nearly 100%."}, "[4]": {"conditions": "substrate 10 mg ml^-1, incubation 15 min"}},
  "data": [
    {"smiles": "OC[C@H]1O[C@H](O[C@H]2[C@H](O)[C@@H](O)[C@@H](O[C@H]3[C@H](O)[C@@H](O)[C@@H](O[C@H]4[C@H](O)[C@@H](O)[C@@H](O[C@H]5[C@H](O)[C@@H](O)[C@@H](O[C@H]6[C@H](O)[C@@H](O)[C@@H](O[C@H]7[C@H](O)[C@@H](O)C(O)O[C@@H]7CO)O[C@@H]6CO)O[C@@H]5CO)O[C@@H]4CO)O[C@@H]3CO)O[C@@H]2CO)[C@H](O)[C@@H](O)[C@@H]1O", "note": "(some centres unmarked) [Maltoheptaose, maltoheptaose]", "values": [
      {"measurement": "substrate inhibition", "setting": "α-1,4-glucan lyase [1]; higher substrate concentrations, 10 mg ml^-1 compared with 2 and 4 mg ml^-1", "result": "none"},
      {"measurement": "Activity (% of Maltoheptaose)", "setting": "α-1,4-glucan lyase [1]; [4]", "result": 100.0, "unit": "%"},
      {"measurement": "degrading rate", "setting": "α-1,4-glucan lyase [1]; [4]", "result": "84 μmol min^-1. mg^-1 protein"},
      {"measurement": "Elution Efficiency", "setting": "α-1,4-glucan lyase [2]", "result": 94.3, "unit": "%"},
      {"measurement": "time needed for a complete degradation", "setting": "α-1,4-glucan lyase [3]", "result": "10 to 24", "unit": "h"}
    ]}
  ]
}
